# Experimental data from patent US9995734B2, “Human T cell line assay for evaluating the immunologic identity of glatiramer acetate preparations” (Mylan Inc., priority 2013, dated 2018).
# Several values for one entry are separate records, joined by “and”; a condition that tells them apart may be missing. Identical values can stand only once.
# Experiments:
# Type in all cases: cell-based, human
# Donor 4 COP T-Cell Lines = experiment: ATP proliferation assay (CellTiter Glo), Donor 4 COP T-cell lines, incl. reactivity to non-canonical GA peptides; conditions: for Non-Canonical Peptide Non-Reactivity: proliferation <2 times no antigen control; for Proliferation (luminescent ATP assay), Mean: T-cell line 205-1F4, Day 71, autologous B-LCL
# Donor 3 GMA T-Cell Lines = experiment: ATP proliferation assay (CellTiter Glo), Donor 3 GMA T-cell lines, incl. reactivity to non-canonical GA peptides; conditions: for proliferation response to non-canonical GA peptides: 0, 1, 3, 10 μg/mL; for Non-Canonical Peptide Reactivity: at least one proliferation value >=2 times no antigen control
# Donor 3 COP T-Cell Lines = experiment: ATP proliferation assay (CellTiter Glo), Donor 3 COP T-cell lines, incl. reactivity to non-canonical GA peptides; conditions: for Non-Canonical Peptide Reactivity: at least one proliferation value >=2 times no antigen control
substance,measurement,setting,value
poly (Glu-Lys; 1:4) [GL 14],Non-Canonical Peptide Non-Reactivity,Donor 4 COP T-Cell Lines; 205-1F4,GL 14
same,reactivity to non-canonical GA peptide,"Donor 4 COP T-Cell Lines; 205-1H3, at 1 μg/mL of antigen",showed reactivity
same,Non-Canonical Peptide Reactivity,"Donor 4 COP T-Cell Lines; 205-1H3, at least one proliferation value >=2 times no antigen control",GL 14
same,Non-Canonical Peptide Non-Reactivity,Donor 4 COP T-Cell Lines; 205-1H11,GL 14
same,Reactive T-Cell Line,"Donor 4 COP T-Cell Lines; Donor 4 COP lines, at least a 50% increase in proliferation relative to a control after stimulation with the non-canonical GA peptide",205-1H3 (Donor 4)
same,Nonreactive T-Cell Line,"Donor 4 COP T-Cell Lines; Donor 4 COP lines, stimulation with the non-canonical GA peptide",205-1F4 (Donor 4) and 205-1H11 (Donor 4)
same,"Proliferation (luminescent ATP assay), Mean",Donor 4 COP T-Cell Lines; 1 μg/mL antigen,12630
same,"Proliferation (luminescent ATP assay), Mean",Donor 4 COP T-Cell Lines; 3 μg/mL antigen,1423
same,"Proliferation (luminescent ATP assay), Mean",Donor 4 COP T-Cell Lines; 10 μg/mL antigen,158
same,"Reactivity (proliferation), Mean","Donor 4 COP T-Cell Lines; T-cell line 205-1H3, 1 μg/mL antigen, 0 μg/mL 4121.0",15619.0
same,"Reactivity (proliferation), Mean","Donor 4 COP T-Cell Lines; T-cell line 205-1H3, 3 μg/mL antigen, 0 μg/mL 4121.0",1053.3
same,"Reactivity (proliferation), Mean","Donor 4 COP T-Cell Lines; T-cell line 205-1H3, 10 μg/mL antigen, 0 μg/mL 4121.0",61.0
same,"Reactivity (proliferation), Mean","Donor 4 COP T-Cell Lines; T-cell line 205-1H11, 1 μg/mL antigen, 0 μg/mL 6941",5954 RLU
same,"Reactivity (proliferation), Mean","Donor 4 COP T-Cell Lines; T-cell line 205-1H11, 10 μg/mL antigen, 0 μg/mL 6941",102 RLU
same,"Reactivity (proliferation), Mean","Donor 4 COP T-Cell Lines; T-cell line 205-1H11, 30 μg/mL antigen, 0 μg/mL 6941",74 RLU
same,proliferation response to non-canonical GA peptides,"Donor 3 GMA T-Cell Lines; 165-B5G and 165-E7G, Day 55",responded well
same,Non-Canonical Peptide Reactivity,Donor 3 GMA T-Cell Lines; 165-B5G,GL 14
same,Non-Canonical Peptide Reactivity,Donor 3 GMA T-Cell Lines; 165-C5G,GL 14
same,Non-Canonical Peptide Reactivity,Donor 3 GMA T-Cell Lines; 165-E7G,GL 14
same,Non-Canonical Peptide Reactivity,Donor 3 GMA T-Cell Lines; 165-E9G,GL 14
same,Non-Canonical Peptide Reactivity,Donor 3 GMA T-Cell Lines; 165-F5G,GL 14
same,proliferation response to non-canonical GA peptides,"Donor 3 GMA T-Cell Lines; 165-F10G, 165-C5G, 165-H11G, 165-C7C, 165-E9G, 165-F5G, minimum 55 days in culture",responded well
same,Non-Canonical Peptide Reactivity,Donor 3 GMA T-Cell Lines; 165-F10G,GL 14
same,Non-Canonical Peptide Reactivity,Donor 3 GMA T-Cell Lines; 165-H11G,GL 14
same,Reactive T-Cell Line,"Donor 3 GMA T-Cell Lines; Donor 3 GMA lines, at least a 50% increase in proliferation relative to a control after stimulation with the non-canonical GA peptide",165-B5G (Donor 3) and 165-C5G (Donor 3) and 165-E7G (Donor 3) and 165-E9G (Donor 3) and 165-F5G (Donor 3) and 165-F10G (Donor 3) and 165-H11G (Donor 3)
same,"Proliferation (luminescent ATP assay), Mean","Donor 3 GMA T-Cell Lines; T-cell line 165-B5G, 1.25 μg/mL antigen, Day 55 of culturing, No Antigen Value 846",3912 RLU
same,"Proliferation (luminescent ATP assay), Mean","Donor 3 GMA T-Cell Lines; T-cell line 165-B5G, 2.5 μg/mL antigen, Day 55 of culturing, No Antigen Value 846",3245 RLU
same,"Proliferation (luminescent ATP assay), Mean","Donor 3 GMA T-Cell Lines; T-cell line 165-B5G, 5 μg/mL antigen, Day 55 of culturing, No Antigen Value 846",501 RLU
same,"Proliferation (luminescent ATP assay), Mean","Donor 3 GMA T-Cell Lines; T-cell line 165-B5G, 10 μg/mL antigen, Day 55 of culturing, No Antigen Value 846",45 RLU
same,"Proliferation (luminescent ATP assay), Mean","Donor 3 GMA T-Cell Lines; T-cell line 165-C5G, 1.25 μg/mL antigen, autologous B-LCL",1412 RLU
same,"Proliferation (luminescent ATP assay), Mean","Donor 3 GMA T-Cell Lines; T-cell line 165-C5G, 2.5 μg/mL antigen, autologous B-LCL",5418 RLU
same,"Proliferation (luminescent ATP assay), Mean","Donor 3 GMA T-Cell Lines; T-cell line 165-C5G, 5 μg/mL antigen, autologous B-LCL",703 RLU
same,"Proliferation (luminescent ATP assay), Mean","Donor 3 GMA T-Cell Lines; T-cell line 165-C5G, 10 μg/mL antigen, autologous B-LCL",43 RLU
same,"Proliferation (luminescent ATP assay), Mean","Donor 3 GMA T-Cell Lines; T-cell line 165-E7G, 1.25 μg/mL antigen, autologous B-LCL, Day 55",10001 RLU
same,"Proliferation (luminescent ATP assay), Mean","Donor 3 GMA T-Cell Lines; T-cell line 165-E7G, 2.5 μg/mL antigen, autologous B-LCL, Day 55",14902 RLU
same,"Proliferation (luminescent ATP assay), Mean","Donor 3 GMA T-Cell Lines; T-cell line 165-E7G, 5 μg/mL antigen, autologous B-LCL, Day 55",4087 RLU
same,"Proliferation (luminescent ATP assay), Mean","Donor 3 GMA T-Cell Lines; T-cell line 165-E7G, 10 μg/mL antigen, autologous B-LCL, Day 55",58 RLU
same,"Proliferation (luminescent ATP assay), Mean","Donor 3 GMA T-Cell Lines; T-cell line 165-E9G, 1.25 μg/mL antigen, autologous B-LCL",145 RLU
same,"Proliferation (luminescent ATP assay), Mean","Donor 3 GMA T-Cell Lines; T-cell line 165-E9G, 2.5 μg/mL antigen, autologous B-LCL",801 RLU
same,"Proliferation (luminescent ATP assay), Mean","Donor 3 GMA T-Cell Lines; T-cell line 165-E9G, 5 μg/mL antigen, autologous B-LCL",268 RLU
same,"Proliferation (luminescent ATP assay), Mean","Donor 3 GMA T-Cell Lines; T-cell line 165-E9G, 10 μg/mL antigen, autologous B-LCL",38 RLU
same,"Proliferation (luminescent ATP assay), Mean","Donor 3 GMA T-Cell Lines; T-cell line 165-F5G, 1.25 μg/mL antigen, autologous B-LCL",559 RLU
same,"Proliferation (luminescent ATP assay), Mean","Donor 3 GMA T-Cell Lines; T-cell line 165-F5G, 2.5 μg/mL antigen, autologous B-LCL",2779 RLU
same,"Proliferation (luminescent ATP assay), Mean","Donor 3 GMA T-Cell Lines; T-cell line 165-F5G, 5 μg/mL antigen, autologous B-LCL",89 RLU
same,"Proliferation (luminescent ATP assay), Mean","Donor 3 GMA T-Cell Lines; T-cell line 165-F5G, 10 μg/mL antigen, autologous B-LCL",38 RLU
same,"Proliferation (luminescent ATP assay), Mean","Donor 3 GMA T-Cell Lines; T-cell line 165-F10G, 1.25 μg/mL antigen, autologous B-LCL",5153 RLU
same,"Proliferation (luminescent ATP assay), Mean","Donor 3 GMA T-Cell Lines; T-cell line 165-F10G, 2.5 μg/mL antigen, autologous B-LCL",19489 RLU
same,"Proliferation (luminescent ATP assay), Mean","Donor 3 GMA T-Cell Lines; T-cell line 165-F10G, 5 μg/mL antigen, autologous B-LCL",1990 RLU
same,"Proliferation (luminescent ATP assay), Mean","Donor 3 GMA T-Cell Lines; T-cell line 165-F10G, 10 μg/mL antigen, autologous B-LCL",53 RLU
same,"Proliferation (luminescent ATP assay), Mean","Donor 3 GMA T-Cell Lines; T-cell line 165-H11G, 1.25 μg/mL antigen, autologous B-LCL",144 RLU
same,"Proliferation (luminescent ATP assay), Mean","Donor 3 GMA T-Cell Lines; T-cell line 165-H11G, 2.5 μg/mL antigen, autologous B-LCL",4416 RLU
same,"Proliferation (luminescent ATP assay), Mean","Donor 3 GMA T-Cell Lines; T-cell line 165-H11G, 5 μg/mL antigen, autologous B-LCL",118 RLU
same,"Proliferation (luminescent ATP assay), Mean","Donor 3 GMA T-Cell Lines; T-cell line 165-H11G, 10 μg/mL antigen, autologous B-LCL",40 RLU
same,Non-Canonical Peptide Reactivity,Donor 3 COP T-Cell Lines; 165-C4C,GL 14
same,Non-Canonical Peptide Reactivity,Donor 3 COP T-Cell Lines; 165-C7C,GL 14
same,proliferation response to non-canonical GA peptides,"Donor 3 COP T-Cell Lines; 165-F3C (Day 77) and 165-C4C (Day 66), 0, 1, 3, 10 μg/mL",responded well
same,Non-Canonical Peptide Reactivity,Donor 3 COP T-Cell Lines; 165-F3C,GL 14
same,proliferation response to non-canonical GA peptides,"Donor 3 COP T-Cell Lines; 165-F6C, Day 76, 0, 1.25, 2.5, 5, 10 μg/mL",reacted
same,response relative to the no antigen control,"Donor 3 COP T-Cell Lines; 165-F6C, Day 76, dose of 2.5 μg/mL antigen",4.4 fold
same,Non-Canonical Peptide Reactivity,Donor 3 COP T-Cell Lines; 165-F6C,GL 14
same,Reactive T-Cell Line,"Donor 3 COP T-Cell Lines; Donor 3 COP lines, at least a 50% increase in proliferation relative to a control after stimulation with the non-canonical GA peptide",165-C4C (Donor 3) and 165-C7C (Donor 3) and 165-F6C (Donor 3) and 165-F3C (Donor 3)
same,"Proliferation (luminescent ATP assay), Mean","Donor 3 COP T-Cell Lines; T-cell line 165-C4C, 1 μg/mL antigen, Day 66 of culture, 0 μg/mL 1881",2833
same,"Proliferation (luminescent ATP assay), Mean","Donor 3 COP T-Cell Lines; T-cell line 165-C4C, 3 μg/mL antigen, Day 66 of culture, 0 μg/mL 1881",4920
same,"Proliferation (luminescent ATP assay), Mean","Donor 3 COP T-Cell Lines; T-cell line 165-C4C, 10 μg/mL antigen, Day 66 of culture, 0 μg/mL 1881",49
same,"Proliferation (luminescent ATP assay), Mean","Donor 3 COP T-Cell Lines; T-cell line 165-C7C, 1.25 μg/mL antigen, autologous B-LCL",274 RLU
same,"Proliferation (luminescent ATP assay), Mean","Donor 3 COP T-Cell Lines; T-cell line 165-C7C, 2.5 μg/mL antigen, autologous B-LCL",1797 RLU
same,"Proliferation (luminescent ATP assay), Mean","Donor 3 COP T-Cell Lines; T-cell line 165-C7C, 5 μg/mL antigen, autologous B-LCL",537 RLU
same,"Proliferation (luminescent ATP assay), Mean","Donor 3 COP T-Cell Lines; T-cell line 165-C7C, 10 μg/mL antigen, autologous B-LCL",39 RLU
same,"Proliferation (luminescent ATP assay), Mean","Donor 3 COP T-Cell Lines; T-cell line 165-F3C, 1 μg/mL antigen, Day 77 of culture, 0 μg/mL 1563",2542
same,"Proliferation (luminescent ATP assay), Mean","Donor 3 COP T-Cell Lines; T-cell line 165-F3C, 3 μg/mL antigen, Day 77 of culture, 0 μg/mL 1563",7091
same,"Proliferation (luminescent ATP assay), Mean","Donor 3 COP T-Cell Lines; T-cell line 165-F3C, 10 μg/mL antigen, Day 77 of culture, 0 μg/mL 1563",65
same,"Proliferation (luminescent ATP assay), Mean","Donor 3 COP T-Cell Lines; T-cell line 165-F6C, 1.25 μg/mL antigen, Day 76 of culture, No Antigen value 517",699
same,"Proliferation (luminescent ATP assay), Mean","Donor 3 COP T-Cell Lines; T-cell line 165-F6C, 2.5 μg/mL antigen, Day 76 of culture, No Antigen value 517","2,267"
same,"Proliferation (luminescent ATP assay), Mean","Donor 3 COP T-Cell Lines; T-cell line 165-F6C, 5 μg/mL antigen, Day 76 of culture, No Antigen value 517",114
same,"Proliferation (luminescent ATP assay), Mean","Donor 3 COP T-Cell Lines; T-cell line 165-F6C, 10 μg/mL antigen, Day 76 of culture, No Antigen value 517",33
